The values below come from ChEMBL document CHEMBL1144200, “Discovery and biological evaluation of benzo[a]carbazole-based small molecule agonists of the thrombopoietin (Tpo) receptor” (Bioorg Med Chem Lett, 2008).

One data set concerns the target T1, Thrombopoietin receptor (Homo sapiens, UniProt P40238).
T1 sequence (P40238 whole entry): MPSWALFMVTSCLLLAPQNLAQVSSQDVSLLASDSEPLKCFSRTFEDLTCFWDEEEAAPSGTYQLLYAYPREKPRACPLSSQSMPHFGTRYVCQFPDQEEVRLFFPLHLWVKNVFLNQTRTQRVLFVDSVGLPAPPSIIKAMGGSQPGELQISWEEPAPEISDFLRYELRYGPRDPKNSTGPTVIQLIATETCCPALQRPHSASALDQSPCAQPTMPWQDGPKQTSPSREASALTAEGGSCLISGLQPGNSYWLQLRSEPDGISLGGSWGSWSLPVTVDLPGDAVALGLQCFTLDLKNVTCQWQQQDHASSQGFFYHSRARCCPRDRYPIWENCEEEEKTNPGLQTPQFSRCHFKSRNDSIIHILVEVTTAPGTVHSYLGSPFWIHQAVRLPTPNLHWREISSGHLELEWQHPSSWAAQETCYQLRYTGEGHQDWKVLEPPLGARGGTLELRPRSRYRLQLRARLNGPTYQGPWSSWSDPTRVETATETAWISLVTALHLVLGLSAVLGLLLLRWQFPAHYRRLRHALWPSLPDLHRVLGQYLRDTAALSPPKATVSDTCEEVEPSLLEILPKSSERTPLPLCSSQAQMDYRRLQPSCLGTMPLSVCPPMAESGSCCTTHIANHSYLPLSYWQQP
Description: Agonist activity at human thrombopoietin receptor in Ba/F3 cells assessed as activation of Stat5 response element-driven reporter gene expression. In kind it is functional, cell-based, BaF3. Background: Reporter assays use an easily measured gene product as a stand-in for the process of interest.

Data set [1] deals with T2, Thrombopoietin receptor (Homo sapiens) (UniProt P40238).
T2 sequence (whole entry): T1 sequence (P40238 whole entry)
The data set can be described thus: Agonist activity at human thrombopoietin receptor in Ba/F3 cells assessed as activation of Stat5 response element-driven reporter gene expression relative to 30 ng/mL thrombopoietin. The data set is classed as functional, cell-based. The note with it: BaF3.

Data set [2] is described as follows: Bioavailability in BALB/c mouse at 20 mg/kg, po. The note with it: in vivo. In kind it is ADME, organism-based.
Data set [3] can be described thus: Cmax in BALB/c mouse at 20 mg/kg, po. In kind it is ADME, organism-based. More on the design: dose 20 mg/kg, route oral. The note with it: in vivo.
The nature of data set [4]: Half life in BALB/c mouse at 20 mg/kg, po. Details: dose 20 mg/kg, route oral. In kind it is ADME, organism-based. The following applies: in vivo.

Take `CCCCc1ccc(-c2ccc3c4c([nH]c3c2)-c2ccc(C(N)=O)cc2CC4)cc1`: the EC50 at Thrombopoietin receptor stood at 76 nM. The Efficacy in data set [1] came out at 111%. The matching figures for `CCCOc1ccc(-c2ccc3c4c([nH]c3c2)-c2cc(O)c(C(=O)O)cc2CC4)cc1`: 41 nM and 129%. For `O=C(O)c1cc2c(cc1O)-c1[nH]c3cc(C4CCCCC4)ccc3c1CC2`, the EC50 at Thrombopoietin receptor was greater than 30000 nM. Regarding `CCCCc1ccc(-c2ccc3c4c([nH]c3c2)-c2ccc(C(=O)N(C)C)cc2CC4)cc1`, the EC50 on Thrombopoietin receptor came out at 127 nM. Moreover, in data set [1], the Efficacy is 132%. Regarding `CCCCc1ccc(-c2ccc3c4c([nH]c3c2)-c2ccc(C(=O)O)cc2CC4)cc1`, the Efficacy in data set [1] was found to be 141%. Regarding `Cc1cc(-c2ccc3c4c([nH]c3c2)-c2cc(O)c(C(=O)O)cc2CC4)ccc1F`, at Thrombopoietin receptor, the EC50 turned out to be 35 nM. The Efficacy in data set [1] came to 126%.

Turning to `CCCCc1ccc(-c2ccc3c4c([nH]c3c2)-c2ccc(-c3nnn[nH]3)cc2CC4)cc1`, on Thrombopoietin receptor, the EC50 is 119 nM. Besides, in data set [1], the Efficacy came to 128%.

On to `CCCOc1cccc(-c2ccc3c4c([nH]c3c2)-c2cc(O)c(C(=O)O)cc2CC4)c1`, for which the EC50 at Thrombopoietin receptor worked out at 43 nM. The Efficacy in data set [1] was found to be 147%. The matching figures for `O=C(O)c1cc2c(cc1O)-c1[nH]c3c(C(F)(F)F)cccc3c1CC2`: 7830 nM and 37%. Taken in the same sequence, the figures for `Cc1ccc2c(c1)[nH]c1c3cc(O)c(C(=O)O)cc3ccc21` were 870 nM and 76%. Taken in the same sequence, the figures for `O=C(O)c1cc2c(cc1O)-c1[nH]c3cc(-c4ccccc4)ccc3c1CC2` were 373 nM and 136%. With `OCc1cc2ccc3c4ccccc4[nH]c3c2cc1O`, the EC50 at Thrombopoietin receptor was greater than 30000 nM. As to `Cc1cccc(C)c1-c1ccc2c3c([nH]c2c1)-c1cc(O)c(C(=O)O)cc1CC3`, the 50% effective concentration (EC50) on Thrombopoietin receptor worked out at 232 nM. Besides, in data set [1], the Efficacy was found to be 30%. With `CCCCc1ccc(-c2ccc3c4c([nH]c3c2F)-c2ccc(C(=O)O)cc2CC4)cc1`, the EC50 at Thrombopoietin receptor is 55 nM. The Efficacy in data set [1] worked out at 140%.

`O=C(O)c1cc2c(cc1O)-c1[nH]c3cc(C(F)(F)F)ccc3c1CC2`: at Thrombopoietin receptor, the EC50 turned out to be 473 nM. Further, in data set [1], the Efficacy is 96%. For `COc1cc2c(ccc3c4ccccc4[nH]c23)cc1C(=O)O`, on Thrombopoietin receptor, the EC50 is greater than 30000 nM.

As to `Cn1c2ccccc2c2ccc3cc(C(=O)O)c(O)cc3c21`, the EC50 at Thrombopoietin receptor is greater than 30000 nM.

In the case of `Cc1cccc(-c2ccc3c4c([nH]c3c2)-c2cc(O)c(C(=O)O)cc2CC4)c1`, the EC50 on Thrombopoietin receptor is 194 nM. Further, in data set [1], the Efficacy worked out at 128%. The matching figures for `O=C(O)c1cc2c(cc1O)-c1[nH]c3ccc(C(F)(F)F)cc3c1CC2`: 333 nM and 115%.

As for `O=C(O)c1cc2c(cc1O)-c1[nH]c3cc(-c4cccc(C(F)(F)F)c4)ccc3c1CC2`, the EC50 at Thrombopoietin receptor is 148 nM. Moreover, the Efficacy in data set [1] came out at 127%. The matching figures for `COCc1ccc(-c2ccc3c4c([nH]c3c2)-c2cc(O)c(C(=O)O)cc2CC4)cc1`: 452 nM and 132%. Taken in the same sequence, the figures for `CN(C)c1ccc(-c2ccc3c4c([nH]c3c2)-c2cc(O)c(C(=O)O)cc2CC4)cc1` were 284 nM and 136%. The matching figures for `O=C(O)c1cc2ccc3c4ccc(C(F)(F)F)cc4[nH]c3c2cc1O`: 143 nM and 128%.

In the case of `O=C(O)c1cc2c(cc1O)-c1[nH]c3ccc(-c4ccccc4)cc3c1CC2`, the EC50 at Thrombopoietin receptor was 569 nM. Also, in data set [1], the Efficacy amounted to 68%.

On to `O=C(O)c1ccc2c3c([nH]c2c1)-c1cc(O)c(C(=O)O)cc1CC3`, for which the EC50 on Thrombopoietin receptor was determined as 7790 nM. The Efficacy in data set [1] is 74%.

Take `COC(=O)c1cc2ccc3c4ccccc4[nH]c3c2cc1O`: the EC50 on Thrombopoietin receptor worked out at 1300 nM. In addition, the Efficacy in data set [1] is 11%. Taken in the same sequence, the figures for `Cc1ccc2c(c1)[nH]c1c3cc(O)c(CC(=O)O)cc3ccc21` were 9200 nM and 70%.

Turning to `Cc1cc(-c2ccc3c4c([nH]c3c2F)-c2ccc(C3=NCCN3)cc2CC4)ccc1F`, at Thrombopoietin receptor, the EC50 was greater than 30000 nM. Take `Cc1cc(C)cc(-c2ccc3c4c([nH]c3c2)-c2cc(O)c(C(=O)O)cc2CC4)c1`: the EC50 on Thrombopoietin receptor was determined as 67 nM. Moreover, the Efficacy in data set [1] came to 128%. This molecule yielded a bioavailability in data set [2] of 10%. In data set [3], this molecule had a Cmax of 2000 nM. In addition, the half-life in data set [4] is 4.1 h. For `CCCCc1ccc(-c2ccc3c4c([nH]c3c2)-c2cc(O)c(C(=O)O)cc2CC4)cc1`, the EC50 on Thrombopoietin receptor was found to be 26 nM. The Efficacy in data set [1] was found to be 143%. In the case of `N#Cc1ccc2[nH]c3c(c2c1)CCc1cc(C(=O)O)c(O)cc1-3`, on Thrombopoietin receptor, the half-maximal effective concentration (EC50) is greater than 30000 nM. As to `O=C(O)c1cc2c(cc1O)-c1[nH]c3c(F)ccc(C(F)(F)F)c3c1CC2`, at Thrombopoietin receptor, the EC50 came to 799 nM. For the same molecule, the Efficacy in data set [1] is 101%. Taken in the same sequence, the figures for `O=C(O)c1cc2ccc3c4ccccc4[nH]c3c2cc1O` were 3400 nM and 100%. The matching figures for `Cc1ccc(-c2ccc3c4c([nH]c3c2)-c2cc(O)c(C(=O)O)cc2CC4)cc1`: 109 nM and 154%.

As to `Cc1ccc(-c2ccc3c4c([nH]c3c2)-c2cc(O)c(C(=O)O)cc2CC4)cc1C`, at Thrombopoietin receptor, the EC50 turned out to be 65 nM. Moreover, the Efficacy in data set [1] is 127%. For `O=C(O)c1cc2c(cc1O)-c1[nH]c3cccc(-c4ccccc4)c3c1CC2`, on Thrombopoietin receptor, the EC50 is greater than 30000 nM.

One may read the EC50 as the concentration at which the effect is half-maximal. For orientation: bioavailability means dose-corrected exposure relative to a reference, in per cent. A lower bioavailability goes with poor availability. Usually Cmax stands for the peak of the concentration-time curve. By half-life is commonly meant how long it takes for the measured level to halve.
